Target: T1, purified human BChE (Homo sapiens, UniProt P06276)
Test: Reversible inhibition of BChE, Ellman method, enzyme-inhibitor dissociation constants
Type: biochemical
Conditions: times higher preference for BChE over AChE
Experimental: (§1) As a source of BChE, a purified human BChE, and as AChE, a recombinant human AChE was used, both enzymes kindly provided by Dr. F. Nachon (Département de Toxicologie, Armed Forces Biomedical Research Institute, France). The concentrated stocks of enzymes (BChE: 5.6 µM; AChE: 0.20 µM) were diluted in a phosphate sodium buffer 0.1 M (pH 7.4) containing 0.1% BSA before starting the experiments.
(§2) Enzyme activities were measured spectrophotometrically by the Ellman method at […] using 0.30 mM DTNB as thiol reagent, ATCh as substrate and water in 0.1 M phosphate buffer, pH 7.4. For the inhibition measurements, the reaction mixture contained tested compounds instead of water. […] Measurements were done at 25 °C on a Tecan Infinite M200Pro plate reader (Austria). A detailed description of measurement protocol was described previously.
(§3) The reversible inhibition of BChE and AChE by tested compounds was measured by determining the decrease of enzyme activity towards ATCh in their presence. The activities of the enzymes were measured at different substrate concentrations ([S]; 0.050–0.50 mM) in the absence (v0) and presence (vi) of the given tested compounds concentration ([I]; 0.050–200 µM, depending on the compound) selected to inhibit the enzymes for 20–80%. At least three concentrations of inhibitors for each substrate concentration were used in at least three experiments. The apparent dissociation inhibition constant (Ki,app) was calculated applying the Hunter-Downs equation and linear regression analysis (1):(1) Ki,app=vi/v0−vi⋅I=KI+KI/KS⋅S where y-intercept determines the enzyme-inhibitor dissociation constants (K(I)), while x-intercept determines the enzyme-substrate dissociation constant, K(S). The determination of kinetic constants was carried out using the GraphPadPrism 6.0 program (GraphPad Software, San Diego, CA, USA).

T1 sequence (P06276 29-602): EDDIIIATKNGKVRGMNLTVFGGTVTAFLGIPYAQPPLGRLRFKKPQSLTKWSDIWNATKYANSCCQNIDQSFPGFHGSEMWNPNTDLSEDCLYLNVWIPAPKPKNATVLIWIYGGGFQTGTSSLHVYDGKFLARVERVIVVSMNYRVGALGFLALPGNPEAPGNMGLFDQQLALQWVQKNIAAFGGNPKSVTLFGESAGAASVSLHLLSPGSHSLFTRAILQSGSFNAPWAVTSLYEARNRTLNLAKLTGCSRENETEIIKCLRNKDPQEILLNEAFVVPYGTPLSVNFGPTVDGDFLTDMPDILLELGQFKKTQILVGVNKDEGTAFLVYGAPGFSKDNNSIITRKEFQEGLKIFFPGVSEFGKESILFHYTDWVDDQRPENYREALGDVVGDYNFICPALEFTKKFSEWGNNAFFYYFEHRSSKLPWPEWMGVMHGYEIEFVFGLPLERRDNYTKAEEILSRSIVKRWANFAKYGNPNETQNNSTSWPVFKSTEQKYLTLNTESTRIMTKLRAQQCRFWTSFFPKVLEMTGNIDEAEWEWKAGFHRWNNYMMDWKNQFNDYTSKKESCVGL

Going from `CCC1C[N+]2(Cc3ccc(OC(F)(F)F)cc3)CCC1C[C@H]2[C@H](O)c1ccnc2ccccc12` (stereo partly shown) [DHCD 4OCF3, N-(4-trifluoromethoxybenzyl)-10,11-dihydrocinchonidinium bromide] to `CCC1C[N+]2(Cc3ccc(OC(F)(F)F)cc3)CCC1C[C@@H]2[C@@H](O)c1ccnc2ccccc12` (stereo partly shown) [DHCN 4OCF3, N-(4-trifluoromethoxybenzyl)-10,11-dihydrocinchoninium bromide], the “SI, selective index Ki(AChE)/Ki(BChE)” value rises from 3 to 10.

Compared with `CCC1C[N+]2(Cc3ccccc3)CCC1C[C@H]2[C@H](O)c1ccnc2ccccc12` (stereo partly shown) [DHCD Bzl], `CCC1C[N+]2(Cc3ccccc3)CCC1C[C@@H]2[C@@H](O)c1ccnc2ccccc12` (stereo partly shown) [DHCN Bzl] is higher in “SI, selective index Ki(AChE)/Ki(BChE)” value: 12 for the first, 23 for the second.

Going from `CCC1CN2CCC1CC2C(O)c1ccnc2ccccc12` (stereo not shown) [DHCD, 10,11-dihydrocinchonidine] to `CCC1C[N+]2(Cc3cccc(F)c3)CCC1C[C@@H]2[C@@H](O)c1ccnc2ccccc12` (stereo partly shown) [DHCN 3F, N-(3-fluorobenzyl)-10,11-dihydrocinchoninium bromide], the “SI, selective index Ki(AChE)/Ki(BChE)” value rises from 11 to 20.

Going from `CCC1C[N+]2(Cc3cccc(C(F)(F)F)c3)CCC1C[C@@H]2[C@@H](O)c1ccnc2ccccc12` (stereo partly shown) [DHCN 3CF3] to `CCC1C[N+]2(Cc3cccc(OC(F)(F)F)c3)CCC1C[C@@H]2[C@@H](O)c1ccnc2ccccc12` (stereo partly shown) [DHCN 3OCF3, N-(3-trifluoromethoxybenzyl)-10,11-dihydrocinchoninium bromide], the “SI, selective index Ki(AChE)/Ki(BChE)” value rises from 34 to 52.

Compared with `CCC1C[N+]2(Cc3ccc(C(F)(F)F)cc3)CCC1C[C@@H]2[C@@H](O)c1ccnc2ccccc12` (stereo partly shown) [DHCN 4CF3], `CCC1C[N+]2(Cc3ccc(F)cc3)CCC1C[C@@H]2[C@@H](O)c1ccnc2ccccc12` (stereo partly shown) [DHCN 4F, N-(4-fluorobenzyl)-10,11-dihydrocinchoninium bromide] is higher in “SI, selective index Ki(AChE)/Ki(BChE)” value: 9 for the first, 40 for the second.

Same assay, conditions: ± standard error; ATCh substrate, 25 °C, pH 7.4

Compared with `CCC1C[N+]2(Cc3ccc(OC(F)(F)F)cc3)CCC1C[C@H]2[C@H](O)c1ccnc2ccccc12` (stereo partly shown) [DHCD 4OCF3, N-(4-trifluoromethoxybenzyl)-10,11-dihydrocinchonidinium bromide], `CCC1C[N+]2(Cc3ccc(OC(F)(F)F)cc3)CCC1C[C@@H]2[C@@H](O)c1ccnc2ccccc12` (stereo partly shown) [DHCN 4OCF3, N-(4-trifluoromethoxybenzyl)-10,11-dihydrocinchoninium bromide] is 2.7-fold lower in Ki: 5.9 ± 0.2 µM for the first, 2.2 ± 0.1 µM for the second. The second binds more tightly here.

Compared with `CCC1C[N+]2(Cc3ccccc3)CCC1C[C@H]2[C@H](O)c1ccnc2ccccc12` (stereo partly shown) [DHCD Bzl], `CCC1C[N+]2(Cc3ccccc3)CCC1C[C@@H]2[C@@H](O)c1ccnc2ccccc12` (stereo partly shown) [DHCN Bzl] is […]-fold higher in Ki: 0.4 ± 0.02 µM for the first, 0.9 ± 0.04 µM for the second. The first binds more tightly here.

First: CCC1CN2CCC1CC2C(O)c1ccnc2ccccc12 (stereo not shown) [DHCD, 10,11-dihydrocinchonidine]
Second: CCC1C[N+]2(Cc3cccc(F)c3)CCC1C[C@@H]2[C@@H](O)c1ccnc2ccccc12 (stereo partly shown) [DHCN 3F, N-(3-fluorobenzyl)-10,11-dihydrocinchoninium bromide]
The Ki of the first is 16-fold higher: 19 ± 2 µM for the first, 1.2 ± 0.1 µM for the second. The second binds more tightly here.

`CCC1C[N+]2(Cc3cccc(C(F)(F)F)c3)CCC1C[C@@H]2[C@@H](O)c1ccnc2ccccc12` (stereo partly shown) [DHCN 3CF3] and `CCC1C[N+]2(Cc3cccc(OC(F)(F)F)c3)CCC1C[C@@H]2[C@@H](O)c1ccnc2ccccc12` (stereo partly shown) [DHCN 3OCF3, N-(3-trifluoromethoxybenzyl)-10,11-dihydrocinchoninium bromide] are within error of each other in Ki: 1.2 ± 0.05 µM for the first, 1.3 ± 0.5 µM for the second.

`CCC1C[N+]2(Cc3ccc(C(F)(F)F)cc3)CCC1C[C@@H]2[C@@H](O)c1ccnc2ccccc12` (stereo partly shown) [DHCN 4CF3] and `CCC1C[N+]2(Cc3ccc(F)cc3)CCC1C[C@@H]2[C@@H](O)c1ccnc2ccccc12` (stereo partly shown) [DHCN 4F, N-(4-fluorobenzyl)-10,11-dihydrocinchoninium bromide] are the same in Ki: 1.6 ± 0.1 µM for the first, 1.6 ± 0.1 µM for the second.

Target: recombinant human AChE (Homo sapiens, UniProt P22303)
Test: Reversible inhibition of AChE, Ellman method, enzyme-inhibitor dissociation constants
Type: biochemical
Conditions: ± standard error; ATCh substrate, 25 °C, pH 7.4
Experimental: as §1, §2, §3

recombinant human AChE, sequence (P22303 32-614): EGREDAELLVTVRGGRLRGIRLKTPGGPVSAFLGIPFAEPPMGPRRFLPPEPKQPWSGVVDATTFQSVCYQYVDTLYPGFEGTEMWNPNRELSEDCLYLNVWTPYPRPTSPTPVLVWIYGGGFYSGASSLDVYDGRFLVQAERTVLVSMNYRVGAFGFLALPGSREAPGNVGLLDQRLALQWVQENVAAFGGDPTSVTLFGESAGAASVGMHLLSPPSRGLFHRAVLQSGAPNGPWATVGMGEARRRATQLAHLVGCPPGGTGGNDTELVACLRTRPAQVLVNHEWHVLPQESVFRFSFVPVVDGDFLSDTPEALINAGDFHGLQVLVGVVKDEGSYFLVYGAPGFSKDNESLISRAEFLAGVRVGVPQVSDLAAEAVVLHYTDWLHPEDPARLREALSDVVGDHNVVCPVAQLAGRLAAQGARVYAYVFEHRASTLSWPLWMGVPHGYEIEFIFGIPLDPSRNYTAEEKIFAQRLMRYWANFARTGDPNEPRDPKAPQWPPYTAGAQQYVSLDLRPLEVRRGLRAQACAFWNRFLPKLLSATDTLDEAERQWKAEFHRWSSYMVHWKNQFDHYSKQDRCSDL

`CCC1C[N+]2(Cc3ccc(OC(F)(F)F)cc3)CCC1C[C@H]2[C@H](O)c1ccnc2ccccc12` (stereo partly shown) [DHCD 4OCF3, N-(4-trifluoromethoxybenzyl)-10,11-dihydrocinchonidinium bromide] and `CCC1C[N+]2(Cc3ccc(OC(F)(F)F)cc3)CCC1C[C@@H]2[C@@H](O)c1ccnc2ccccc12` (stereo partly shown) [DHCN 4OCF3, N-(4-trifluoromethoxybenzyl)-10,11-dihydrocinchoninium bromide] are within 1.5-fold of each other in Ki: 17 ± 1 µM for the first, 22 ± 1 µM for the second.

Going from `CCC1C[N+]2(Cc3ccccc3)CCC1C[C@H]2[C@H](O)c1ccnc2ccccc12` (stereo partly shown) [DHCD Bzl] to `CCC1C[N+]2(Cc3ccccc3)CCC1C[C@@H]2[C@@H](O)c1ccnc2ccccc12` (stereo partly shown) [DHCN Bzl], the Ki rises from 4.8 ± 0.4 µM to 21 ± 1 µM (4.4-fold).

First: CCC1CN2CCC1CC2C(O)c1ccnc2ccccc12 (stereo not shown) [DHCD, 10,11-dihydrocinchonidine]
Second: CCC1C[N+]2(Cc3cccc(F)c3)CCC1C[C@@H]2[C@@H](O)c1ccnc2ccccc12 (stereo partly shown) [DHCN 3F, N-(3-fluorobenzyl)-10,11-dihydrocinchoninium bromide]
The Ki of the first is 10-fold higher: 206 ± 6 µM for the first, 20 ± 1 µM for the second. The second binds more tightly here.

Compared with `CCC1C[N+]2(Cc3cccc(C(F)(F)F)c3)CCC1C[C@@H]2[C@@H](O)c1ccnc2ccccc12` (stereo partly shown) [DHCN 3CF3], `CCC1C[N+]2(Cc3cccc(OC(F)(F)F)c3)CCC1C[C@@H]2[C@@H](O)c1ccnc2ccccc12` (stereo partly shown) [DHCN 3OCF3, N-(3-trifluoromethoxybenzyl)-10,11-dihydrocinchoninium bromide] is […]-fold higher in Ki: 41 ± 2 µM for the first, 68 ± 1 µM for the second. The first binds more tightly here.

Going from `CCC1C[N+]2(Cc3ccc(C(F)(F)F)cc3)CCC1C[C@@H]2[C@@H](O)c1ccnc2ccccc12` (stereo partly shown) [DHCN 4CF3] to `CCC1C[N+]2(Cc3ccc(F)cc3)CCC1C[C@@H]2[C@@H](O)c1ccnc2ccccc12` (stereo partly shown) [DHCN 4F, N-(4-fluorobenzyl)-10,11-dihydrocinchoninium bromide], the Ki rises from 18 ± 1 µM to 64 ± 2 µM (3.6-fold).

Target: T1, purified human BChE
Test: not given
Conditions: earlier determined; cited from earlier work

In the case of `C=CC1C[N+]2(Cc3ccc(Br)cc3)CCC1CC2C(O)c1ccnc2ccccc12` (stereo not shown) [N-para-bromobenzyl CD derivative], the “selectivity to BChE over AChE (times)” value is given as 510.

— publication PMC9610298, “Synthesis, Biological Evaluation and Machine Learning Prediction Model for Fluorinated Cinchona Alkaloid-Based Derivatives as Cholinesterase Inhibitors” (Pharmaceuticals, 2022)
